Measurements as given in patent US20060052440A1, “Medicinal composition for treating sudden deafness” (Nichimo Co., Ltd., priority 2002, published 2006).

Assay: SOD-like activity (superoxide scavenging activity) by ESR spin trap method, hypoxanthine-xanthine oxidase system with DMPO
Format: biochemical
Conditions: for SOD-like activity after emulsification: after emulsification (Tween-80 or other emulsifier), figures in parentheses; for SOD-like activity (superoxide scavenging activity): not emulsified, extracted with untreated 0.1 M phosphate buffer
Text: This superoxide scavenging activity will be described in further detail below. Superoxides (O2') are a type of active oxygen that are produced by neutrophils and macrophages and protect the body from impurities, but also are the cause of pulmonary emphysema, cataracts, arteriosclerosis, psoriasis, and the like. These superoxides are, therefore, a double-edged sword. The enzyme activity of superoxide dismutase (SOD) and superoxide scavenging activity (SOSA or SOD-like activity) are examples of the ability of food products to eliminate O2'. The former is an enzyme and is therefore broken down by digestive enzymes and goes virtually unabsorbed in vivo when taken orally. Consequently, the latter is promising for food products. […] ESR is a method for measuring SOD-like activity and assessing the ability of […] to scavenge O2'. […] This method is also called the spin trap method. In accordance with preparation by this spin trap method, only the water-soluble components are extracted in order to extract the component with SOD-like activity contained in a sample with 0.1 M phosphate buffer. […] Consequently, measuring superoxide […] activity with the isoflavone pre-emulsified in a small amount of oil or fat was contemplated.

SMILES | SOD-like activity after emulsification | SOD-like activity (superoxide scavenging activity)
O=c1c(-c2ccc(O)cc2)coc2cc(O)ccc12 [Daidzein, daidzein] | (300 or units/g | 300 or less units/g
O=c1c(-c2ccc(O)cc2)coc2cc(O)cc(O)c12 [Genistein, genistein] | (300 or units/g | 300 or less units/g
